Read-outs that look alike come from different tables or passages of the source.
Tests used:
Assay type in all cases: in vivo
[1] = test system: Echinochloa crus-galli; experiment: Field transplant rice test, applied 0 DAT, EC; details: 0 h, read-out: Percent Inhibition, EC; for inhibition at 375 g/ha: 0.375 Kg/Ha; for inhibition at 750 g/ha: 0.75 Kg/Ha; for inhibition at 1500 g/ha: 1.5 Kg/Ha; for inhibition at 3000 g/ha: 3.0 Kg/Ha
Method: (§1) The test data in Table III for all compounds was obtained under identical test conditions. The weeds used in the tests herein have the following abbreviations in the tables: Echinochloa crus-galli (EC), Monochloria vaginalis (MV), Cyperus Serotinus (CS), Eleocharis Kuroguwai (EK) and Sagittaria trifolia (ST).
(§2) In further comparative tests, a preferred compound of this invention (Example 1) was tested in the field with prior art Compounds A-D. These tests were conducted under conditions reflecting herbicide application times generally favorable to all herbicides in the test. The timing of application of herbicides to transplant rice is very important, whether, as in some instances, prior to transplanting the rice; in other instances, at the time of transplanting or else after transplanting. Application times are conventionally referred to as "days before transplant" (DBT) or "days after transplant" ("DAT"). The field test data in Table IV was obtained from a test in which the herbicides were applied at the time of transplant, i.e., "0 DAT", with observations being made weekly up to six weeks after transplant ("WAT") beginning at two weeks after transplant; for illustrative and representative purposes, only the early, middle and late period observations, i.e., 2 WAT, 4 WAT and 6 WAT, are shown in Table IV. The data in Table IV is for rates of application common to all herbicides in the test, i.e., from 3.0 kg/ha (2.67 lb/A) down to 0.375 kg/ha (0.34 lb/A). All herbicides were applied at their actual or expected use rates, i.e., as granules containing 2.5% by weight herbicide for the compound of Example 1, Compounds B, C and D and 5.0% by weight for Compound A.

[2] = test system: Eleocharis kuroguwai; experiment: Field transplant rice test, applied 0 DAT, EK; details: 0 h, read-out: Percent Inhibition, EK; for inhibition at 375 g/ha: 0.375 Kg/Ha; for inhibition at 750 g/ha: 0.75 Kg/Ha; for inhibition at 1500 g/ha: 1.5 Kg/Ha; for inhibition at 3000 g/ha: 3.0 Kg/Ha
Method: as §1, §2

[3] = test system: Rice; experiment: Field transplant rice test, applied 9 DAT, rice injury; details: Oryza sativa, 216 h, read-out: Percent Inhibition, Rice; for inhibition at 375 g/ha: 0.375 Kg/Ha; for inhibition at 750 g/ha: 0.75 Kg/Ha; for inhibition at 1500 g/ha: 1.5 Kg/Ha; for inhibition at 3000 g/ha: 3.0 Kg/Ha
Method: as §2
(§3) In Table V are presented field data showing the relative performance of the compound of Example 1 and Compounds A-D applied 9 DAT, with observations being made weekly from 3 WAT to 7 WAT; again, for illustrative and representative purposes, only the early, middle and late period observations are reported in Table V, the herbicide rates and concentrations of active ingredients the same as is shown in Table IV.

[4] = test system: Eleocharis kuroguwai; experiment: Field transplant rice test, applied 9 DAT, EK; details: for inhibition at 375 g/ha / inhibition at 750 g/ha / inhibition at 1500 g/ha / inhibition at 3000 g/ha: Eleocharis kuroguwai, 216 h, read-out: Percent Inhibition, EK; for inhibition at 375 g/ha: 0.375 Kg/Ha; for inhibition at 750 g/ha: 0.75 Kg/Ha; for inhibition at 1500 g/ha: 1.5 Kg/Ha; for inhibition at 3000 g/ha: 3.0 Kg/Ha
Excerpt: In the discussion of data below, occasional reference is made to herbicide application rates symbolized as "GR15 " and "GR85 "; these rates are given in kilograms per hectare (kg/ha) which are convertible into pounds per acre (lbs/A) by dividing the kg/ha rate by 1.12.
A further guide to the effectiveness of a chemical as a selective herbicide is the "selectivity factor" ("SF") for a herbicide in given crops and weeds. The selectivity factor is a measure of the relative degree of crop safety and weed injury and is expressed in terms of the GR15 /GR85 ratio, i.e., the GR15 rate for the crop divided by the GR85 rate for the weed, both rates in kg/ha (lb/A.)
as §1, §2, §3

[5] = test system: Sagittaria trifolia; experiment: Field transplant rice test, applied 9 DAT, ST; details: 216 h, read-out: Percent Inhibition, ST; for inhibition at 375 g/ha: 0.375 Kg/Ha; for inhibition at 750 g/ha: 0.75 Kg/Ha; for inhibition at 1500 g/ha: 1.5 Kg/Ha; for inhibition at 3000 g/ha: 3.0 Kg/Ha
Method: as §1, §2, §3

[6] = test system: Echinochloa crus-galli; experiment: Greenhouse transplant rice test, EC; details: about 3 WAT, read-out: Percent Inhibition, EC
Excerpt: (§4) The test procedure used in this greenhouse test is as follows: Ray silt loam top soil containing about 0.05% by weight of krillium and sifted through a […] screen is fumigated about 5-10 days prior to use. Pots are then filled with said Ray silt loam soil to a level to allow for a 1 in. (2.54 cm) flooding depth. Rice plants (Bluebelle) of 2 to 3 weeks age are transplanted to the pots and bulbs or seeds of the test weeds also planted in the pots. The pots are then flooded and the test chemical applied to the surface of the flood water. The flood water is reduced to allow for germination of the Echinochloa crus-galli (barnyardgrass) seed and subsequently reflooded and maintained in that condition. Observations of percent inhibition using a scale of 0-100% are made about 3 weeks after transplant (WAT).
as §1

[7] = test system: Monochoria vaginalis; experiment: Greenhouse transplant rice test, MV; details: Pontederia vaginalis, about 3 WAT, read-out: Percent Inhibition, MV
Excerpt: as §4, §1

Q: Which results are given for CCCOCCN(C(=O)CCl)c1c(CC)cccc1CC [Compound D, 2',6'-diethyl-N-(n-propoxyethyl)-2-chloroacetanilide]?
A: inhibition at 375 g/ha ([1]; 2 WAT): 73%; inhibition at 375 g/ha ([1]; 4 WAT): 88%; inhibition at 375 g/ha ([1]; 6 WAT): 83%; inhibition at 750 g/ha ([1]; 2 WAT): 90%; inhibition at 750 g/ha ([1]; 4 WAT): 100%; inhibition at 750 g/ha ([1]; 6 WAT): 100%; inhibition at 1500 g/ha ([1]; 2 WAT): 97%; inhibition at 1500 g/ha ([1]; 4 WAT): 98%; inhibition at 1500 g/ha ([1]; 6 WAT): 93%; inhibition at 3000 g/ha ([1]; 2 WAT): 99%; inhibition at 3000 g/ha ([1]; 4 WAT): 100%; inhibition at 3000 g/ha ([1]; 6 WAT): 100%; inhibition at 375 g/ha ([2]; 2 WAT): 62%; inhibition at 375 g/ha ([2]; 4 WAT): 20%; inhibition at 375 g/ha ([2]; 6 WAT): 0%; inhibition at 750 g/ha ([2]; 2 WAT): 63%; inhibition at 750 g/ha ([2]; 4 WAT): 40%; inhibition at 750 g/ha ([2]; 6 WAT): 10%; inhibition at 1500 g/ha ([2]; 2 WAT): 70%; inhibition at 1500 g/ha ([2]; 4 WAT): 67%; inhibition at 1500 g/ha ([2]; 6 WAT): 47%; inhibition at 3000 g/ha ([2]; 2 WAT): 85%; inhibition at 3000 g/ha ([2]; 4 WAT): 75%; inhibition at 3000 g/ha ([2]; 6 WAT): 22%; inhibition at 375 g/ha ([3]; 3 WAT): 8%; inhibition at 375 g/ha ([3]; 5 WAT): 7%; inhibition at 375 g/ha ([3]; 7 WAT): 7%; inhibition at 750 g/ha ([3]; 3 WAT): 10%; inhibition at 750 g/ha ([3]; 5 WAT): 5%; inhibition at 750 g/ha ([3]; 7 WAT): 2%; inhibition at 1500 g/ha ([3]; 3 WAT): 10%; inhibition at 1500 g/ha ([3]; 5 WAT): 5%; inhibition at 1500 g/ha ([3]; 7 WAT): 7%; inhibition at 3000 g/ha ([3]; 3 WAT): 15%; inhibition at 3000 g/ha ([3]; 5 WAT): 5%; inhibition at 3000 g/ha ([3]; 7 WAT): 8%; selectivity factor (GR15/GR85), EK in transplant rice ([4]; 3 WAT): about 1; inhibition at 375 g/ha ([4]; 3 WAT): 50%; inhibition at 375 g/ha ([4]; 5 WAT): 23%; inhibition at 375 g/ha ([4]; 7 WAT): 0%; inhibition at 750 g/ha ([4]; 3 WAT): 45%; inhibition at 750 g/ha ([4]; 5 WAT): 20%; inhibition at 750 g/ha ([4]; 7 WAT): 0%; inhibition at 1500 g/ha ([4]; 3 WAT): 52%; inhibition at 1500 g/ha ([4]; 5 WAT): 30%; inhibition at 1500 g/ha ([4]; 7 WAT): 0%; inhibition at 3000 g/ha ([4]; 3 WAT): 84%; inhibition at 3000 g/ha ([4]; 5 WAT): 78%; inhibition at 3000 g/ha ([4]; 7 WAT): 45%; inhibition at 375 g/ha ([5]; 3 WAT): 45%; inhibition at 375 g/ha ([5]; 5 WAT): 12%; inhibition at 375 g/ha ([5]; 7 WAT): 7%; inhibition at 750 g/ha ([5]; 3 WAT): 42%; inhibition at 750 g/ha ([5]; 5 WAT): 25%; inhibition at 750 g/ha ([5]; 7 WAT): 18%; inhibition at 1500 g/ha ([5]; 3 WAT): 43%; inhibition at 1500 g/ha ([5]; 5 WAT): 25%; inhibition at 1500 g/ha ([5]; 7 WAT): 22%; inhibition at 3000 g/ha ([5]; 3 WAT): 73%; inhibition at 3000 g/ha ([5]; 5 WAT): 60%; inhibition at 3000 g/ha ([5]; 7 WAT): 52%

Q: With CCCCOc1cccc(CC)c1N(CC)C(=O)CCl [Example 2, N-ethyl-2'-n-butoxy-6'-ethyl-2-chloroacetanilide] as the molecule, how does the inhibition at 280 g/ha ([6]; 0.28 Kg/Ha) read?
A: Its inhibition at 280 g/ha is 100%.

Q: What about the inhibition at 560 g/ha ([6]; 0.56 Kg/Ha) of the same molecule?
A: The inhibition at 560 g/ha was 100%.

Q: And the inhibition at 1120 g/ha ([6]; 1.12 Kg/Ha)?
A: Its inhibition at 1120 g/ha is 100%.

Q: And the inhibition at 2240 g/ha ([6]; 2.24 Kg/Ha)?
A: Its inhibition at 2240 g/ha is 100%.

Q: What about the inhibition at 280 g/ha ([7]; 0.28 Kg/Ha) of the same molecule?
A: Its inhibition at 280 g/ha is 100%.

Q: And the inhibition at 560 g/ha ([7]; 0.56 Kg/Ha)?
A: Its inhibition at 560 g/ha is 100%.

Q: And the inhibition at 1120 g/ha ([7]; 1.12 Kg/Ha)?
A: Its inhibition at 1120 g/ha is 100%.

Q: What about the inhibition at 2240 g/ha ([7]; 2.24 Kg/Ha) of the same molecule?
A: Its inhibition at 2240 g/ha is 100%.

Source: patent US4345938A, “Herbicidal 2-haloacetanilides” (Monsanto Company, priority 1980, dated 1982)
